Consider six molecules from US8129366B2, “VLA-4 inhibitory drug” (Daiichi Sankyo Company, Limited, priority 2005, dated 2012).

The Ki is a measure of affinity in units of concentration, obtained from inhibition or displacement. A lower Ki goes with tighter binding. In general, IC50 refers to the concentration at which inhibition is half-maximal. The term solubility denotes the concentration that dissolves in the medium under given conditions. Lower therefore signals a poorly soluble substance.

Converted amounts (≈) assume the structure as drawn.

Data set [1] has as its system eosinophile infiltration in mice actively sensitized with ascaris. Briefly: Test for eosinophile infiltration in mice actively sensitized with ascaris, administered two times a day. Type of data set: in vivo. The settings on record: orally 5 mg/kg two times a day; for inhibition in vivo at 5 mg/kg: Mus musculus, po, eosinophile count in BALF 48 hours after sensitization vs ascaris-sensitized group, read-out: suppression rate (%); for Average total eosinophile count (×10^5) of (ascaris-sensitized + substance under test) group: BALF 48 hours after sensitization. On the procedure: Test for eosinophile infiltration in mice actively sensitized with ascaris (antigen to pig roundworm):
It has been reported that infiltration of eosinophilic cells is induced by active sensitization with ascaris {Int. Arch. Immuno., 108, 11-18 (1995)}. An evaluation of the compounds under test was performed according to the evaluation method described herein. The substance under test was orally administered in an amount of 5 mg/kg, two times a day. The total cell count and the eosinophile count in BALF of 48 hours after sensitization were calculated, and the effects were determined by comparing with the group not administered with the substance under test.

Another data set concerns the target T1, hα4 and β1 integrins (Homo sapiens, UniProt P05556+P13612).
T1 construct: expressed in transfected cells; host or cells: CHO cells
The data set can be described thus: In vitro inhibition of binding between CHO cells expressing hα4 and β1 integrins and Eu3+-hVCAM-1 D1D7-IgG. The settings on record: for Ki: CHO cells expressing hα4 and β1 integrins, Eu3+-hVCAM-1 D1D7-IgG ligand, without HSA; for IC50: in the presence of 3% human serum albumin (HSA final concentration 3%). In outline: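 Transfected CHO cells, cultured 2 days, were incubated with compound and Eu³⁺-hVCAM-1 D1D7-IgG (diluted to 2 nM) for 1 h at room temperature. Buffer was 25 mM HEPES pH 7.5 with 1 mM Ca²⁺, 1 mM Mg²⁺, 4 mM Mn²⁺ and 0.1% BSA, ±3% HSA final. Cells were washed at 4 °C and read by DELFIA time-resolved fluorescence; Ki was derived from IC50 using the Scatchard Kd.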

The nature of data set [2]: Solubility test in first and second liquid of the Japanese Pharmacopoeia. The settings on record: Solubility.
Protocol: The solubilities of the substance under test in the first liquid (JP1, pH=1.2) of the Japanese Pharmacopoeia and the second liquid (JP2, pH=6.8) of the Japanese Pharmacopoeia, were evaluated.
[3] abbreviates: first liquid of the Japanese Pharmacopoeia (JP1), pH 1.2, simulated gastric fluid, First liquid of Japanese Pharmacopoeia (μg/mL), JP1, pH=1.2.
The mark [4] stands for this setting: second liquid of the Japanese Pharmacopoeia (JP2), pH 6.8, aqueous buffer, Second liquid of Japanese Pharmacopoeia (μg/mL), JP2, pH=6.8.

T1 sequence (P13612 34-1032): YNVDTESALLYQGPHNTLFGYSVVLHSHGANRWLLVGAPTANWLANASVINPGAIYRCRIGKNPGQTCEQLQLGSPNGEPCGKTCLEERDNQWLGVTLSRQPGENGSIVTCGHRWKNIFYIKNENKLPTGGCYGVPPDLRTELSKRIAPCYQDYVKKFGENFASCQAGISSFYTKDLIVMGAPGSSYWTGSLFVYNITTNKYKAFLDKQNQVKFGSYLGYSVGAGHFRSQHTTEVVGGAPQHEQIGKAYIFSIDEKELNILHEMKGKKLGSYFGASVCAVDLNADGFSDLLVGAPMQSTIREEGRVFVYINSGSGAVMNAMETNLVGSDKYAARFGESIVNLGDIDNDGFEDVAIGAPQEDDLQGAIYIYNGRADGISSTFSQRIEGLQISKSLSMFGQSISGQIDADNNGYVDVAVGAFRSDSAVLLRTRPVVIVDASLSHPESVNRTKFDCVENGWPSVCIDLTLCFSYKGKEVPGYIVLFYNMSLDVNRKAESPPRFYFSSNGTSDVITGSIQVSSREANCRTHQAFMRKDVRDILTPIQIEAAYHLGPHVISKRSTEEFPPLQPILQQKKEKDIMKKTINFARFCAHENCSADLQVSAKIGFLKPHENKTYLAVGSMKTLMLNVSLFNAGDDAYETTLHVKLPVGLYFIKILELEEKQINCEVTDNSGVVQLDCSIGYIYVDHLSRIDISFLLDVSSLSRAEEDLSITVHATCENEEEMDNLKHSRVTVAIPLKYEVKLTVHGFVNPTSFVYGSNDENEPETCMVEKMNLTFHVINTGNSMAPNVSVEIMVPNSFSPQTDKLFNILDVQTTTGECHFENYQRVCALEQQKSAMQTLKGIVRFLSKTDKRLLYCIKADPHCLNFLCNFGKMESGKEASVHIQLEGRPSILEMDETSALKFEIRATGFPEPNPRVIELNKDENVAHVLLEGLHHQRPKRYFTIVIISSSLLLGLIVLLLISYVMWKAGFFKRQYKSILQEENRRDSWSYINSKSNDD
T1 sequence (P05556 21-798): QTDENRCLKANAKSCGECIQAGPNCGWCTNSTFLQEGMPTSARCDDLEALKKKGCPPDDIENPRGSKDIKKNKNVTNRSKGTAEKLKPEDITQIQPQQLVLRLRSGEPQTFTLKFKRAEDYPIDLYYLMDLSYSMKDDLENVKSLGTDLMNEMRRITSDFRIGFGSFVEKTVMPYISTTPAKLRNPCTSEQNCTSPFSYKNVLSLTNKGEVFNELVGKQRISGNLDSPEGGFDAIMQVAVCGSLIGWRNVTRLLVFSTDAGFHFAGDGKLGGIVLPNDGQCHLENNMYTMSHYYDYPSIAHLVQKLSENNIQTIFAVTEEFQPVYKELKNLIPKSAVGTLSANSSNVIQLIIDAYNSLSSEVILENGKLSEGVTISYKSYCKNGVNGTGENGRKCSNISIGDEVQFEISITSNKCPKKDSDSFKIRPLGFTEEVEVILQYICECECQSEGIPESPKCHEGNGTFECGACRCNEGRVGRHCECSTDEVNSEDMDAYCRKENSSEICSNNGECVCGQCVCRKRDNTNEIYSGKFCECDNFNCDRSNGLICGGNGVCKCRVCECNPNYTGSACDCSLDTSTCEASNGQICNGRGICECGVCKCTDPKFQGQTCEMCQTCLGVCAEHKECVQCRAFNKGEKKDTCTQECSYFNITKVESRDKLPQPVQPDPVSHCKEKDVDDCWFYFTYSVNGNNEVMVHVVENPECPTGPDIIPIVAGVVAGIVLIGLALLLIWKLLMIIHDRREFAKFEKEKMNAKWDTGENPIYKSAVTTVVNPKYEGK

Turning to `C[C@@H]1CN([C@H]2C[C@@H](CO[C@H]3CC[C@H](C(=O)O)CC3)N(C(=O)Cc3cc(Cl)c(NC(=O)c4cn(C)c5ccccc45)cc3Cl)C2)C[C@H](C)O1` [Example 80, Trans-4-[1-[[2,5-dichloro-4-[(1-methyl-1H-indol-3-ylcarbonyl)amino]phenyl]acetyl]-(4S)-(cis-2,6-dimethylmorpholin-4-yl)-(2S)-pyrrolidinylmethoxy]cyclohexanecarboxylic acid], in data set [1], the inhibition in vivo at 5 mg/kg was determined as 51% and the “Average total eosinophile count (×10^5) of (ascaris-sensitized + substance under test) group” value is 1.86 ×10^5. Moreover, on hα4 and β1 integrins, the inhibition constant (Ki) is 6.5 nM and the IC50 was found to be 20 nM.
For `O=C(Nc1ccc(CC(=O)N2C[C@@H](N3CCN(CC(F)(F)F)CC3)C[C@H]2CO[C@H]2CC[C@H](C(=O)O)CC2)cc1Cl)c1nccc2ccccc12` [Example 127, Trans-4-[1-[[3-chloro-4-[(isoquinolin-1-ylcarbonyl)amino]phenyl]acetyl]-(4S)-[4-(2,2,2-trifluoroethyl)piperazin-1-yl]-(2S)-pyrrolidinylmethoxy]cyclohexanecarboxylic acid] the same measures were 63%, 1.40 ×10^5, 9.6 nM and 34 nM.
In the same order, the values of `Cn1cc(C(=O)Nc2cc(F)c(CC(=O)N3C[C@@H](N4C[C@H]5COC[C@H]5C4)C[C@H]3CO[C@H]3CC[C@H](C(=O)O)CC3)cc2Cl)c2ccccc21` [Example 72] are 70%, 1.41 ×10^5, 2.8 nM and 15 nM.
For the molecule `O=C(Nc1cc(F)c(CC(=O)N2C[C@@H](N3CCCCC3)C[C@H]2CO[C@H]2CC[C@H](C(=O)O)CC2)cc1Cl)c1csc2ccccc12` [Example 94, Trans-4-[1-[[4-[(benzo[b]thiophen-3-ylcarbonyl)amino]-5-chloro-2-fluorophenyl]acetyl]-(4S)-(piperidin-1-yl)-(2S)-pyrrolidinylmethoxy]cyclohexanecarboxylic acid], in data set [1], the inhibition in vivo at 5 mg/kg came to 59% and the “Average total eosinophile count (×10^5) of (ascaris-sensitized + substance under test) group” value is reported as 1.24 ×10^5. At hα4 and β1 integrins, affinity was put at a Ki of 0.93 nM and the IC50 was 2.9 nM.
In turn, `O=C(Nc1cc(F)c(CC(=O)N2C[C@@H](N3CC(CN4CCOCC4)C3)C[C@H]2CO[C@H]2CC[C@H](C(=O)O)CC2)cc1Cl)c1coc2ccccc12` [Example 30, Trans-4-[1-[[4-[(benzo[b]furan-3-ylcarbonyl)amino]-5-chloro-2-fluorophenyl]acetyl]-(4S)-[3-(4-morpholinylmethyl)azetidin-1-yl]-(2S)-pyrrolidinylmethoxy]cyclohexanecarboxylic acid] had a solubility in data set [2] (setting [3]) of 1100 µg/mL (≈ 1550 µM). In data set [2] (setting [4]), the solubility was 1100 µg/mL (≈ 1550 µM). On hα4 and β1 integrins, the Ki was 4.6 nM and the IC50 was 12 nM.
Turning to `C[C@@H]1CN([C@H]2C[C@@H](CO[C@H]3CC[C@H](C(=O)O)CC3)N(C(=O)Cc3ccc(NC(=O)c4coc5ccccc45)c(Cl)c3)C2)C[C@H](C)O1` [Example 87, Trans-4-[1-[[4-[(benzo[b]furan-3-ylcarbonyl)amino]-3-chlorophenyl]acetyl]-(4S)-(cis-2,6-dimethylmorpholin-4-yl)-(2S)-pyrrolidinylmethoxy]cyclohexanecarboxylic acid], the concentration in solution in data set [2] (setting [3]) (solubility) came to 1200 µg/mL (≈ 1840 µM). The solubility in data set [2] (setting [4]) turned out to be 1200 µg/mL (≈ 1840 µM). Further, on hα4 and β1 integrins, the affinity, expressed as Ki, was 0.95 nM and the concentration for half-maximal inhibition (IC50) was found to be 8.1 nM.
